Reference: patent US20080187490A1, “Methods for Treating Amyotrophic Lateral Sclerosis” (priority 2005, published 2008)
No end group written: not given here.

Tests used:
human C1q = test: Reverse ELISA: inhibition of PAP immune complex binding to C1q coated plates; conditions: for OD 405 nm: PAP pre-incubated with peptide or C1q one hour, 30 min on C1q plates, lower OD = more inhibition, positive control 2.355; for inhibition of C1q binding (in words): ranking among peptides of Table 1
From the text: (§1) For this reason, a “reverse ELISA” technique was used to assess binding of the Fc region to ligands that bind to immune complexed IgG Fc. In a reverse ELISA, the enzyme (e.g., HRP) is not covalently conjugated to the Fc portion of the secondary antibody. Rather, a preformed immune complex of peroxidase-rabbit (or mouse) anti-peroxidase IgG (“PAP” complex) is used. […] In these experiments, an Fe CH2-CH3 cleft binding ligand (e.g., purified human C1q) was bound to microwell plates. In the absence of competitor, PAP complexes bound to the immobilized ligand and the reaction between HRP and its substrate produced a signal. This signal was reduced by polypeptides and compounds provided herein that inhibited PAP binding to the immobilized ligand.
PAP complexes were formed mixing 2 μl of rabbit anti-peroxidase (Sigma Chemicals, St. Louis, Mo.) with 50 μl of peroxidase (Sigma-Aldrich, St. Louis, Mo.) in 1 ml distilled water. PAP (100 μl) were pre-incubated with 100 μl of peptide for one hour, 100 μl were pre-incubated with 100 μl of peptide or human C1q (Quidel Corp., San Diego, Calif.) for one hour. The C1q/PAP and peptide/PAP mixtures (100 μl) were incubated with C1q coated plates for 30 minutes. After washing, plates were incubated with ATBS (Quidel Corp.) for 15 minutes and read at 405 nm.

FcγIIa = test: Reverse ELISA: inhibition of PAP immune complex binding to FcγIIa coated plates; conditions: PAP pre-incubated with peptide one hour; lower OD = more inhibition; positive control 1.599
From the text: as §1
(§2) Once the reverse ELISA protocol was established using the C1q assay, the assay was redesigned using FcγIIa, FcγIIb, and FcγIII in place of C1q. Highly purified FcγIIa, FcγIIb and FcγIII were immunoadsorbed onto plastic microwells. After optimizing the FcγR reverse ELISA system, simple competitive inhibition experiments using polypeptides provided herein were conducted to investigate their ability to inhibit binding of immune complexes to purified FcγR.
(§3) Falcon microtiter plates were coated with 1:10 dilutions of highly purified FcγIIa, FcγIIb and FcγIII and incubated for 24 hours. The plates were washed and then blocked with 5×BSA blocking solution (Alpha Diagnostic International, San Antonio, Tex.) for 24 hours. PAP immune complexes were formed as described above. PAP (100 μl) were pre-incubated with 100 μl of peptide for one hour. PAP/peptide mixtures were added to the FcγR coated plates and incubated for one hour. After washing, plates were incubated with ABTS substrate for 15 minutes and read at 405 nm.

FcγIIb = test: Reverse ELISA: inhibition of PAP immune complex binding to FcγIIb coated plates; conditions: PAP pre-incubated with peptide one hour; lower OD = more inhibition; positive control 1.394
From the text: as §1, §2, §3

FcγIII = test: Reverse ELISA: inhibition of PAP immune complex binding to FcγIII coated plates; conditions: PAP pre-incubated with peptide one hour; lower OD = more inhibition; positive control 1.588
From the text: as §1, §2, §3

[1] = target: human C1q (Quidel Corp.) (human) (UniProt P02745); test: reverse ELISA: PAP without competitor on C1q-coated plate
human C1q (Quidel Corp.) (human), sequence (P02745 23-245 limits assumed, chain 1 of 3): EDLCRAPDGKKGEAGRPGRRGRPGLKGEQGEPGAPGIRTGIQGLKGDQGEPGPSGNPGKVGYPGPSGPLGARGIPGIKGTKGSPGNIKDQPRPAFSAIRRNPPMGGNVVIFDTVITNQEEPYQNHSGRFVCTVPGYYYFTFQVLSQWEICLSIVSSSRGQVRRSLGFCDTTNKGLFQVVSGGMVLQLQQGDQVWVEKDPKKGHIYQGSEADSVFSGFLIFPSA
human C1q (Quidel Corp.) (human), sequence (P02746 28-253 limits assumed, chain 2 of 3, further chain): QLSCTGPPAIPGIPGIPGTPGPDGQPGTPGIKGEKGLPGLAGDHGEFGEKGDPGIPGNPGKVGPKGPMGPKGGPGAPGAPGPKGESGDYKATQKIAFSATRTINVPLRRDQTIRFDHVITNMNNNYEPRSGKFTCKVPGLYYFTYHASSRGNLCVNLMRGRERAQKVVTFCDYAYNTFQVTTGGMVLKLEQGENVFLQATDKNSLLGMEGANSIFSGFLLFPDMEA
human C1q (Quidel Corp.) (human), sequence (P02747 29-245 limits assumed, chain 3 of 3, further chain): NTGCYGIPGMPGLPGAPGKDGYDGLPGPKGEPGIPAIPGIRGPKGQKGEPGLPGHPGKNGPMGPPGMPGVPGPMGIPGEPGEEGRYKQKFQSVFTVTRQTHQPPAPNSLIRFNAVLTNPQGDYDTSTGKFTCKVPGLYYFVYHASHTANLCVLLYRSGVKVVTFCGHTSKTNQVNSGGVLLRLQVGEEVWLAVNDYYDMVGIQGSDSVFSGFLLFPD

FcγIII (highly purified) = test: reverse ELISA: PAP without competitor on FcγIII-coated plate
FcγIIa (highly purified) = test: reverse ELISA: PAP without competitor on FcγIIa-coated plate
FcγIIa (highly purified), sequence (P12318 34-317): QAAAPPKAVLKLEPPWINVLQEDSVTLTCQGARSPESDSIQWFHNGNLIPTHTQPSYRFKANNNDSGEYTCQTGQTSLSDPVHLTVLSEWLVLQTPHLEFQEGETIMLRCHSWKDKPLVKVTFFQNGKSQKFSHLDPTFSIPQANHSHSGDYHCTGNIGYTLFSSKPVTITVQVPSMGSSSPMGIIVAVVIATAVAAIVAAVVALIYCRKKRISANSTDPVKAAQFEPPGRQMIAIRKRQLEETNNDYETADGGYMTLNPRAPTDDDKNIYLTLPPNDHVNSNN

FcγIIb (highly purified) = test: reverse ELISA: PAP without competitor on FcγIIb-coated plate
FcγIIb (highly purified), sequence (P31994 43-310): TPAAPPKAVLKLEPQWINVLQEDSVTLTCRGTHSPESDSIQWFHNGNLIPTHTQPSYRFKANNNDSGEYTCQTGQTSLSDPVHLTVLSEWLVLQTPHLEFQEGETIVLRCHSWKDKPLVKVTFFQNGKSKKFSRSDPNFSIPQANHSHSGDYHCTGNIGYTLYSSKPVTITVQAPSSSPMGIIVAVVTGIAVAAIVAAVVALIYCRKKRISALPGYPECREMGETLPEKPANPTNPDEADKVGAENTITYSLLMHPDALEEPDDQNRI

human wtSOD1 = test: Reverse ELISA: inhibition of immune complexed IgG (PAP) binding to wt SOD1 coated plates; conditions: for wt SOD1 (OD read at 405 nm): PAP pre-incubated with peptide one hour, 60 min on plates, positive control 2.900; for inhibition of wt SOD1 binding to PAP (in words): ranking among peptides of Table 3
Protocol: (§4) PAP complexes were prepared as described in Example 2. PAP (100 μl) were pre-incubated with 100 μl of peptide for one hour, and control (200 μl of PAP) also was incubated for one hour. 100 μl of either PAP or PAP/peptide was added to Falcon microtiter plates that had been coated for 24 hours with either 0.8 μg/ml human wtSOD1 (Sigma-Aldrich) or apo (non Cu, Zn containing) monomeric mutant SOD1 C57S (mSOD1C57S). The PAP or peptide/PAP mixtures (100 μl) were added after one hour to either wt SOD1 or mSOD1C57S coated plates for 60 minutes. After washing, plates were incubated with ATBS for 15 minutes and read at 405 nm.

[2] = system: apo monomeric mutant SOD1 C57S (mSOD1C57S); test: Reverse ELISA: inhibition of immune complexed IgG (PAP) binding to mSOD1C57S coated plates; conditions: for mSOD1C57S (OD read at 405 nm): PAP pre-incubated with peptide one hour, 60 min on plates, positive control […]; for inhibition of mSOD1C57S binding to PAP (in words): ranking among peptides of Table 3
Protocol: as §4

FcR = test: FcγR reverse ELISA, overall statement on FcR binding to PAP; conditions: ranking among peptides of Table 2
Protocol: as §2, §3

IgG Fc = test: Alanine substitution, binding of SEQ ID NO:16 to IgG Fc; conditions: alanine substitution of IgG Fc Asn-434, His-435, or Tyr-436
[3] = target: preformed immune complex of peroxidase-rabbit anti-peroxidase IgG (PAP complex) (rabbit; horseradish) (UniProt P00433); test: competition reverse ELISA: PAP pre-incubated with peptide, residual PAP binding to C1q-coated plate (competitor: immobilized C1q)
preformed immune complex of peroxidase-rabbit anti-peroxidase IgG (PAP complex) (rabbit; horseradish), sequence (P00433 31-338, one chain of several): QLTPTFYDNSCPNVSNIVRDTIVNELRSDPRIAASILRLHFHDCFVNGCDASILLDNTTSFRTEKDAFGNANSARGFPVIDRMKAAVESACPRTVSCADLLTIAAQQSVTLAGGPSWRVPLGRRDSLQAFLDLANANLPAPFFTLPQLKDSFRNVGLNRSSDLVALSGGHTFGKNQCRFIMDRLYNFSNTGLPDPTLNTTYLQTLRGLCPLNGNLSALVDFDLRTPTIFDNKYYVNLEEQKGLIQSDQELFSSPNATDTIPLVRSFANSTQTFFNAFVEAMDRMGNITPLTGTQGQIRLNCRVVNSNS

[4] = target: preformed immune complex of peroxidase-rabbit anti-peroxidase IgG (PAP complex) (rabbit; horseradish) (UniProt P00433); test: competition reverse ELISA: PAP pre-incubated with peptide, residual PAP binding to FcγIII-coated plate (competitor: immobilized FcγIII)
[5] = target: preformed immune complex of peroxidase-rabbit anti-peroxidase IgG (PAP complex) (rabbit; horseradish) (UniProt P00433); test: competition reverse ELISA: PAP pre-incubated with peptide, residual PAP binding to FcγIIa-coated plate (competitor: immobilized FcγIIa)
[6] = target: preformed immune complex of peroxidase-rabbit anti-peroxidase IgG (PAP complex) (rabbit; horseradish) (UniProt P00433); test: competition reverse ELISA: PAP pre-incubated with peptide, residual PAP binding to FcγIIb-coated plate (competitor: immobilized FcγIIb)
[7] = target: preformed immune complex of peroxidase-rabbit anti-peroxidase IgG (PAP complex) (rabbit; horseradish) (UniProt P00433); test: competition reverse ELISA: PAP pre-incubated with peptide, residual PAP binding to wt SOD1-coated plate (competitor: immobilized wt SOD1)
[8] = target: preformed immune complex of peroxidase-rabbit anti-peroxidase IgG (PAP complex) (rabbit; horseradish) (UniProt P00433); test: competition reverse ELISA: PAP pre-incubated with peptide, residual PAP binding to mSOD1C57S-coated plate (competitor: immobilized mSOD1C57S)

preformed immune complex of peroxidase-rabbit anti-peroxidase IgG (PAP complex), sequence (P00433 31-338, one chain of several): as above

| OD 405 nm [3] [OD 405 nm] | OD 405 nm [4] [OD 405 nm] | OD 405 nm [5] [OD 405 nm] | OD 405 nm [6] [OD 405 nm] | Molecule | OD 405 nm (human C1q) | FcγIIa (OD read at 405 nm) (FcγIIa) | FcγIIb (OD read at 405 nm) (FcγIIb) | FcγIII (OD read at 405 nm) (FcγIII) | other results |
| --- | --- | --- | --- | --- | --- | --- | --- | --- | --- |
| – | – | – | – | APPCARHLGELVWCT [SEQ ID NO:14] | 0.567 | 0.956 | 0.768 | 0.709 | inhibition of C1q binding (in words) (human C1q): next best result |
| – | – | – | – | APPCAWHLGELVWCT [SEQ ID NO:13] | 1.148 | 0.658 | 0.562 | 0.530 | – |
| – | – | – | – | preformed immune complex of peroxidase-rabbit anti-peroxidase IgG (PAP complex) (from UniProt P00433 31-338) (antibody) | – | – | – | – | OD 405 nm [1]: 2.35 OD 405 nm; OD 405 nm (FcγIII (highly purified)): 1.59 OD 405 nm; OD 405 nm (FcγIIa (highly purified)): 1.6 OD 405 nm; OD 405 nm (FcγIIb (highly purified)): 1.39 OD 405 nm |
| – | – | – | – | Ala-Pro-Pro-Asp-Cys-Ala-Trp-His-Leu-Gly-Glu-Leu-Val-Trp-Cys-Thr (APPDCAWHLGELVWCT) [SEQ ID NO:16] | 0.389 | 0.509 | 0.496 | 0.670 | inhibition of C1q binding (in words) (human C1q): greatest inhibition; wt SOD1 (OD read at 405 nm) (human wtSOD1): 0.277; inhibition of wt SOD1 binding to PAP (in words) (human wtSOD1): greatest inhibition; inhibition of wt SOD1 binding to PAP (in words) (human wtSOD1; listed as 16): best inhibition; mSOD1C57S (OD read at 405 nm) [2]: 0.226; inhibition of mSOD1C57S binding to PAP (in words) [2]: greatest inhibition; inhibition of mSOD1C57S binding to PAP (in words) ([2]; listed as 16): best inhibition; inhibition of FcR binding to PAP (in words) (FcR): greatest inhibition; ΔΔG, disruption of binding (IgG Fc): ≥ 1.5 kcal/mol |
| – | – | – | – | APPCAFHLGELVWCT (not fully specified; cysteine pairing not given here) [SEQ ID NO:15] | 0.983 | 0.605 | 0.380 | 0.880 | – |
| – | – | – | – | Asp-Cys-Ala-Phe-His-Leu-Gly-Glu-Leu-Val-Trp-Cys-Thr (DCAFHLGELVWCT) [SEQ ID NO:3] | 0.859 | 0.660 | 0.510 | 0.810 | – |
| – | – | – | – | Asp-Cys-Ala-Trp-His-Leu-Gly-Glu-Leu-Val-Trp-Cys-Thr [SEQ ID NO:2] | 1.100 | 0.561 | 0.532 | 0.741 | wt SOD1 (OD read at 405 nm) (human wtSOD1): 0.292; inhibition of wt SOD1 binding to PAP (in words) (human wtSOD1; listed as 2): inhibited; mSOD1C57S (OD read at 405 nm) [2]: 0.592; inhibition of mSOD1C57S binding to PAP (in words) ([2]; listed as 2): inhibited |
| 0.389 | 0.67 | 0.509 | 0.496 | APPDCAWHLGELVWCT [Peptide … (SEQ ID NO:16)] | – | – | – | – | OD 405 nm [7]: 0.277 OD 405 nm; OD 405 nm [8]: 0.226 OD 405 nm |
| 0.983 | 0.88 | 0.605 | 0.38 | APPCAFHLGELVWCT (not fully specified; cysteine pairing not given here) [Peptide … (SEQ ID NO:15)] | – | – | – | – | – |
| 0.567 | 0.709 | 0.956 | 0.768 | APPCARHLGELVWCT (not fully specified; cysteine pairing not given here) [Peptide … (SEQ ID NO:14)] | – | – | – | – | – |
| 0.859 | 0.81 | 0.66 | 0.51 | DCAFHLGELVWCT [Peptide … (SEQ ID NO:3)] | – | – | – | – | – |
| 1.15 | 0.53 | 0.658 | 0.562 | APPCAWHLGELVWCT (not fully specified; cysteine pairing not given here) [Peptide … (SEQ ID NO:13)] | – | – | – | – | – |
